Reference: patent US7214519B2, “Screening method for identifying heme independent modulators of soluble guanylyl cyclase (sGC) activity using αβCys105 mutant sGC” (Board of Regents of the University of Texas System, priority 2003, dated 2007)
Where a chain is given by its changes, count along the chain named.

Key:
[1] = target: T1, αβ^Cys105 mutant sGC (Homo sapiens, UniProt Q02108+Q02153, H105C); assay: Assay of sGC activity ([32P]cGMP formation from GTP), purified αβ^Cys105 mutant enzyme; format: biochemical
T1 construct: made in house; host or cells: Sf9 cells (baculovirus)
T1 sequence (Q02153 1-619 H105C): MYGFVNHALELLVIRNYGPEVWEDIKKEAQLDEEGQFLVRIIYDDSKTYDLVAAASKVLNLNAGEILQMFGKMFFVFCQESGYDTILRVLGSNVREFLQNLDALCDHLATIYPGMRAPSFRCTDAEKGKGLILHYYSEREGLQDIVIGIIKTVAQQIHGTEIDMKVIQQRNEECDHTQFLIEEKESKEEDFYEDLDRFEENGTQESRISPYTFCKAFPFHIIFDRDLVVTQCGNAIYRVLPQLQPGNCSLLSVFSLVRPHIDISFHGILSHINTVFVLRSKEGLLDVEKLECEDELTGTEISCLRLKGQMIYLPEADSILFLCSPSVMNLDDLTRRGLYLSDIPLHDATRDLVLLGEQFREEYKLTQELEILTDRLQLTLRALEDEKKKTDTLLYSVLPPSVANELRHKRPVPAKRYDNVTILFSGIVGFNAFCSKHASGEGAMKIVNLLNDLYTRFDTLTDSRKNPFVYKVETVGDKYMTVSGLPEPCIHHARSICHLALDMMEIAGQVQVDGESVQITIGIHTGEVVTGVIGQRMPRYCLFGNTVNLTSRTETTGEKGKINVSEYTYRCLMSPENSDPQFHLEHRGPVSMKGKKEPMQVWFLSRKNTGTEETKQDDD
T1 sequence (Q02108 1-690): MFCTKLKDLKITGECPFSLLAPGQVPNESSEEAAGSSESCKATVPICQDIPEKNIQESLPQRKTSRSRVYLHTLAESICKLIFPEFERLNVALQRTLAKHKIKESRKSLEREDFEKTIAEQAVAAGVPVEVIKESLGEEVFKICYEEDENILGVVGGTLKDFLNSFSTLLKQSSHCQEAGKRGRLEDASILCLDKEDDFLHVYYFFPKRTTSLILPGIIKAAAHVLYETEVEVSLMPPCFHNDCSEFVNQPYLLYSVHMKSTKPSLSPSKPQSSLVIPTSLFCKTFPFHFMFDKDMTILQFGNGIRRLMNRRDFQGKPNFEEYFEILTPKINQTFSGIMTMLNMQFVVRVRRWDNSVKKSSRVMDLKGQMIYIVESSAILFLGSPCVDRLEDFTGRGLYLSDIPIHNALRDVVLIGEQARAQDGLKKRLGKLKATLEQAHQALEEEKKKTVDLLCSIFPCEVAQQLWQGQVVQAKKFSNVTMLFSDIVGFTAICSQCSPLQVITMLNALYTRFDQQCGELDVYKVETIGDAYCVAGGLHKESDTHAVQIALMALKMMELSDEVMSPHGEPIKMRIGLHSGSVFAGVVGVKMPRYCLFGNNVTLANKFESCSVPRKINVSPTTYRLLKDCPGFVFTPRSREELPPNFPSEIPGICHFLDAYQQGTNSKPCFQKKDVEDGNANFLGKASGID
Description: (§1) sGC Expression and Purification. […] Purification of sGC was performed as described earlier (26), the disclosure of which is hereby incorporated herein by reference, with the following modifications. Cells were harvested 72 h post infection, resuspended in loading buffer (25 mM triethanolamine, pH 7.5. 10 glycerol, 4 mM MgCl2 and 1 mM phenylmethylsulfonyl fluoride, and 5 μg/ml each of pepstatin A, leupeptin, aprotinin, and chymostatin,) and lysed by sonication. The lysate was subjected to 100,000×g centrifugation for 1 h. The high-speed supernate was loaded on a 60 ml DEAE-Sepharose (Amersham Pharmacia Biotech) column and washed with 60 ml of loading buffer without protease inhibitors. The proteins were eluted with loading buffer containing 250 mM NaCl and the eluate was directly loaded on a 30 ml His-Bind resin (Novagen) column. The column was washed with 60 ml of loading buffer followed by 60 ml of loading buffer with 45 mM imidazole. The enzyme was eluted with 175 mM imidazole and 2 ml fractions were collected. […] The enzyme at this stage was approximately 90–95% pure. To remove imidazole, sGC-containing fractions were diluted 3 fold with 25 mM triethanolamine pH 7.5, loaded on a 2 ml Hi-Trap DEAE-Sepharose column (Amersham Pharmacia Biotech), washed with 10 ml of loading buffer and eluted with 25 mM triethanolamine pH 7.5, 250 mM NaCl, 10 glycerol, 4 mM MgCl2, 0.5 mM EDTA, 0.5 mM EGTA. The enzyme obtained at this stage (95% or greater purity) was used for experiments.
(§2) Assay of sGC Activity. Enzyme activity was assayed by formation of [^32P] cGMP from α[^32P]GTP at 37° C. in a final volume of 100 μl. Incubation medium contained 50 mM triethanolamine-HCl buffer (pH 7.4), 1 mM 3-isobutyl-1-methylxanthine (IBMX), 1 mg/ml BSA. 1 mM cGMP, 3 mM MgCl2, 0.05 mg/ml creatine phosphokinase, 5 mM creatine phosphate, 0.1 mM EGTA. 200 μM GTP (about 10.000 cpm/pmol). The reaction was started by addition of the substrate (GTP) with or without activators. 1 mM DTT, GSH or cysteine were added to the incubation medium before the addition of GTP. Thiol concentration varied in some experiments as indicated. Samples containing 0.2 μg sGC were incubated for 10 or 15 min and the reaction was stopped by addition of 500 μl 150 mM zinc acetate and 500 μl 180 mM sodium carbonate. The pellet of zinc carbonate containing most of the unreacted GTP was removed by centrifugation and the supernatant fractions were loaded onto columns filled with 1 g of neutral alumina. Columns were then eluted with 10 ml 0.1 M Tris-HCl buffer (pH 7.5) and Cherenkov radiation in flow through plus eluate was counted in a LKB liquid scintillation spectrometer. Samples incubated in the absence of sGC were used as a negative control. The concentration of dimethylsulfoxide (DMSO) used as a vehicle for YC-1 was not higher than 0.1 and had no effect on sGC activity as determined previously.

[2] = target: T2, wild type sGC (Homo sapiens, UniProt Q02108+Q02153); assay: Assay of sGC activity ([32P]cGMP formation from GTP), purified wild type enzyme; format: biochemical
T2 construct: made in house; host or cells: Sf9 cells (baculovirus)
T2 sequence (Q02153 1-619): T1 sequence (Q02153 1-619 H105C) with C105H
T2 sequence (Q02108 1-690): T1 sequence (Q02108 1-690)
Description: as §1, §2

[3] = 2 μM BAY-41-2272, data not shown

SMILES: C=CC1=C(C)c2cc3[nH]c(cc4nc(cc5[nH]c(cc1n2)c(C)c5CCC(=O)O)C(CCC(=O)O)=C4C)c(C)c3C=C [PPIX, protoporphyrin IX, reference compound]
- stimulation of basal activity by PPIX ([1]; 1 μM PPIX, absence of DTT): 80

SMILES: OCc1ccc(-c2nn(Cc3ccccc3)c3ccccc23)o1 [YC-1, 3-(5′-Hydroxymethyl-2′furyl)-1-benzyl-indazole, reference compound]
- increase of activity with YC-1 activation ([1]; 100 μM YC-1, DTT-free conditions): 30
- extent of activation by YC-1 after heme reconstitution ([1]; 100 μM YC-1, DTT-treated heme-reconstituted enzyme): did not change the extent of activation
- fold activation by YC-1 ([1]; 100 μM YC-1, in the presence of DTT): up to 3 fold
- fold stimulation by YC-1 ([2]; 100 μM YC-1): 11 fold
- specific activity with YC-1 ([2]; 100 μM YC-1): 0.15 µmol/min/mg

SMILES: NCCSSCCN [cystamine, reference compound]
- sensitivity to cystamine in the presence of DTT ([1]; 1 mM cystamine, 1 mM DTT): less sensitive
- effect of cystamine on activity in the presence of DTT ([2]; 1 mM cystamine, 1 mM DTT): reversed
- effect of cystamine on activity ([2]; 1 mM cystamine, no DTT): inhibited

SMILES: Nc1nc(-c2nn(Cc3ccccc3F)c3ncccc23)ncc1C1CC1 [BAY-41-2272, 5-cyclopropyl-2-[1-(2-fluoro-benzyl)-1H-pyrazolo[3,4-b]pyridin-3-yl]-pyrimidin-4-ylamine, reference compound]
- effect compared with 100 μM YC-1 [1, 3]: Identical effects
- effect compared with 100 μM YC-1 [2, 3]: Identical effects

SMILES: O[C@@H](CS)[C@@H](O)CS [DTT, reference compound]
- concentration at which inhibitory effect is prominent ([1]; concentration-response, FIG. 1B): higher than 1 mM
- fold decrease in enzymatic activity ([1]; millimolar concentrations of DTT): 5–7 fold
- change of activity without DTT ([2]; 1 mM DTT vs no thiols): did not change significantly

SMILES: N[C@@H](CCC(=O)N[C@@H](CS)C(=O)NCC(=O)O)C(=O)O [GSH, glutathione, reference compound]
- specific activity in the presence of GSH ([1]; GSH as reducing agent, no DTT): up to 2 μmol/min/mg
- effect of GSH on activity ([1]; GSH concentration above 1 mM): slight stimulatory effect

SMILES: CCCCC/C=C\C/C=C\C/C=C\C/C=C\CCCC(=O)O [arachidonic acid, reference compound]
- activity with arachidonic acid ([1]; 1 mM arachidonic acid, in the presence of DTT): 0.5 µmol/min/mg
- fold stimulation by arachidonic acid ([1]; 1 mM, in the presence of DTT): 3.5 fold
- stimulation by arachidonic acid ([1]; absence of DTT): only modestly stimulated
- maximum fold activation by arachidonic acid ([2]; not affected by DTT, data not shown): 3 fold
